Conditions in all cases: procedure of example 2
The test system of experiment [1] is glioblastoma human cell line RUSIRS1. The experiment in a line: Increase in the activity of cytostatics with nanoparticles (Table 1), RUSIRS1. It is filed as cell-based. On the procedure: (§1) The experiments in vitro were carried out with the cell lines BT20 (breast carcinoma) and WiDr (colon carcinoma). The tumor cells were taken from tumor tissue of a patient and cultivated as described in DE 199 12 798 C1. 2×10^6 cells, respectively, were prepared in a 75 cm^3 cell culture bottle with 25 ml of cell culture medium (RPMI+10% FBS+1.2 ml of pyruvate for WiDr cells, or respectively BME+10% FBS+pyruvate+5 ml of non-essential amino acids+5 ml glutamine for BT20 cells) for testing the efficacy of the cefamandole/nanoparticle mixture. 136 μl of magnetic fluid MFL AS M01 (iron oxide nanoparticle coated with polycondensed N-(2-aminoethyl)-3-(trimethoxysilyl)propylamine, manufacturer: MagForce Nanotechnologies GmbH, Berlin, Germany) (cFe=2 mol/l) and 390 μl of cefamandole solution (stock solution 1 mg/ml in 0.9% NaCl) were added to said cell suspension.
(§2) Corresponding to the experiment procedure according to example 2, the following […] were tested in vitro with the active ingredients listed in table 1: a) glioblastoma human cell line RUSIRS 1; b) breast carcinoma cell lines BT20; c) colon carcinoma cell line WiDR; d) bronchial carcinoma cells NSCLC, e) rectal carcinoma cells and f) prostate carcinoma cell line DU 145.
(§3) In all cases, an increased activity of the cytostatic could be observed. The increase in activity is indicated in parentheses after the respective cytostatic, wherein (+) means an increase of about 5% to 80% and (++) means an increase of 80% to 500%.

Experiment [2] concerns breast carcinoma cell lines BT20. Briefly: Increase in the activity of cytostatics with nanoparticles (Table 1), BT20. It is filed as cell-based, human. On the procedure:
as §1, §2, §3

Experiment [3] deals with colon carcinoma cell line WiDr. Briefly: Increase in the activity of cytostatics with nanoparticles (Table 1), WiDr. It is filed as cell-based, human. On the procedure:
as §1, §2, §3

The subject of experiment [4] is bronchial carcinoma cells NSCLC. Briefly: Increase in the activity of cytostatics with nanoparticles (Table 1), NSCLC. It is filed as cell-based. The protocol:
as §1, §2, §3

Another experiment relates to rectal carcinoma cells. Briefly: Increase in the activity of cytostatics with nanoparticles (Table 1), rectal carcinoma. It is filed as cell-based. On the procedure: as §1, §2, §3
The subject of experiment [5] is prostate carcinoma cell line DU 145. The experiment in a line: Increase in the activity of cytostatics with nanoparticles (Table 1), DU 145. It is filed as cell-based. On the procedure:
as §1, §2, §3

A further experiment deals with neuroglioma cell line H4. Briefly: Increase in the activity of cytostatics with nanoparticles (Table 1), H4. It is filed as cell-based. The protocol: as §1, §2, §3

Here are results for 13 compounds from patent publication US9827312B2, “Method for carrying therapeutic substances into cells” (MAGFORCE AG, priority 2005, dated 2017).

For the compound `Nc1nc2c(ncn2COCCO)c(=O)[nH]1` [acyclovir], the “increase in the activity of cytostatics” value in experiment [1] is recorded as “(+) ((+) means an increase of about 5% to 80%)”; in experiment [2], “(+) ((+) means an increase of about 5% to 80%)”; in experiment [3] it was “(+) ((+) means an increase of about 5% to 80%)”; in experiment [4], “(+) ((+) means an increase of about 5% to 80%)”; with rectal carcinoma cells it was “(++) ((++) means an increase of 80% to 500%)”; in experiment [5], “(+) ((+) means an increase of about 5% to 80%)”. In addition, in the experiment with neuroglioma cell line H4, the “increase in the activity of cytostatics” value was “(+) ((+) means an increase of about 5% to 80%)”.

As to `CC[C@@H]1/C=C(\C)C[C@H](C)C[C@H](OC)[C@H]2O[C@@](O)(C(=O)C(=O)N3CCCC[C@H]3C(=O)O[C@H](/C(C)=C/[C@@H]3CC[C@@H](O)[C@H](OC)C3)[C@H](C)[C@@H](O)CC1=O)[C@H](C)C[C@@H]2OC` [ascomycin], the “increase in the activity of cytostatics” value is “(++) ((++) means an increase of 80% to 500%)” in experiment [1]; “(+) ((+) means an increase of about 5% to 80%)” in experiment [2]; “(+) ((+) means an increase of about 5% to 80%)” in experiment [3]; “(+) ((+) means an increase of about 5% to 80%)” in experiment [4]; “(+) ((+) means an increase of about 5% to 80%)” in the experiment with rectal carcinoma cells; “(+) ((+) means an increase of about 5% to 80%)” in experiment [5].

In the case of `CN1CCCC(n2nc(Cc3ccc(Cl)cc3)c3ccccc3c2=O)CC1` (stereo not drawn) [azelastine], the “increase in the activity of cytostatics” value (in experiment [1]; in experiment [2]; with rectal carcinoma cells; in experiment [5]; in the experiment with neuroglioma cell line H4) was “(+) ((+) means an increase of about 5% to 80%)” throughout.

Regarding `Cn1c(CCCC(=O)O)nc2cc(N(CCCl)CCCl)ccc21` [bendamustine], the “increase in the activity of cytostatics” value in experiment [1], in experiment [2], in experiment [4] and in experiment [5] was “(+) ((+) means an increase of about 5% to 80%)” in each case.

For `CS(=O)(=O)OCCCCOS(C)(=O)=O` [busulfan], the “increase in the activity of cytostatics” value in experiment [1] was “(+) ((+) means an increase of about 5% to 80%)”; in experiment [3], “(+) ((+) means an increase of about 5% to 80%)”; in experiment [4], “(++) ((++) means an increase of 80% to 500%)”; in experiment [5], “(+) ((+) means an increase of about 5% to 80%)”; in the experiment with neuroglioma cell line H4, “(+) ((+) means an increase of about 5% to 80%)”.

Consider `O=NN(CCCl)C(=O)NCCCl` [carmustine], for which the “increase in the activity of cytostatics” value in experiment [1] is “(+) ((+) means an increase of about 5% to 80%)”; in experiment [2] it was “(+) ((+) means an increase of about 5% to 80%)”; in experiment [3], “(+) ((+) means an increase of about 5% to 80%)”; in experiment [4], “(++) ((++) means an increase of 80% to 500%)”; in the experiment on rectal carcinoma cells it was “(+) ((+) means an increase of about 5% to 80%)”; in experiment [5] it was “(+) ((+) means an increase of about 5% to 80%)”. Besides, the “increase in the activity of cytostatics” value in the experiment on neuroglioma cell line H4 is given as “(+) ((+) means an increase of about 5% to 80%)”.

For the compound `COCc1c(C(C)C)nc(C(C)C)c(/C=C/[C@@H](O)C[C@@H](O)CC(=O)O)c1-c1ccc(F)cc1` [cerivastatin], the “increase in the activity of cytostatics” value in experiment [1] is “(+) ((+) means an increase of about 5% to 80%)”; in experiment [2] it was “(+) ((+) means an increase of about 5% to 80%)”; in experiment [3] it was “(+) ((+) means an increase of about 5% to 80%)”; in experiment [4] it was “(+) ((+) means an increase of about 5% to 80%)”; in the experiment on rectal carcinoma cells it was “(++) ((++) means an increase of 80% to 500%)”; in experiment [5], “(+) ((+) means an increase of about 5% to 80%)”. The “increase in the activity of cytostatics” value with neuroglioma cell line H4 is on record as “(+) ((+) means an increase of about 5% to 80%)”.

Take `O=C(O)CCCc1ccc(N(CCCl)CCCl)cc1` [chlorambucil]: the “increase in the activity of cytostatics” value in experiment [1] is listed as “(+) ((+) means an increase of about 5% to 80%)”; in experiment [2] it was “(+) ((+) means an increase of about 5% to 80%)”; in experiment [3], “(++) ((++) means an increase of 80% to 500%)”; in experiment [4], “(+) ((+) means an increase of about 5% to 80%)”; in the experiment with rectal carcinoma cells, “(+) ((+) means an increase of about 5% to 80%)”; in experiment [5], “(+) ((+) means an increase of about 5% to 80%)”. The “increase in the activity of cytostatics” value in the experiment on neuroglioma cell line H4 is recorded as “(++) ((++) means an increase of 80% to 500%)”.

Take `Nc1nc(Cl)nc2c1ncn2[C@H]1C[C@H](O)[C@@H](CO)O1` [cladribine]: the “increase in the activity of cytostatics” value is recorded as “(+) ((+) means an increase of about 5% to 80%)” in experiment [1]; “(+) ((+) means an increase of about 5% to 80%)” in experiment [2]; “(++) ((++) means an increase of 80% to 500%)” in experiment [3]; “(++) ((++) means an increase of 80% to 500%)” in experiment [4]; “(+) ((+) means an increase of about 5% to 80%)” in experiment [5]; “(+) ((+) means an increase of about 5% to 80%)” with neuroglioma cell line H4.

As to `O=C(O)Cc1ccccc1Nc1c(Cl)cccc1Cl` [diclofenac], the “increase in the activity of cytostatics” value in experiment [1] is “(+) ((+) means an increase of about 5% to 80%)”; in experiment [3], “(+) ((+) means an increase of about 5% to 80%)”; in experiment [4] it was “(+) ((+) means an increase of about 5% to 80%)”; with rectal carcinoma cells, “(++) ((++) means an increase of 80% to 500%)”; in experiment [5], “(+) ((+) means an increase of about 5% to 80%)”; with neuroglioma cell line H4 it was “(+) ((+) means an increase of about 5% to 80%)”.

As to `COC(=O)C1=C(C)NC(C)=C(C(=O)OC)C1c1ccccc1[N+](=O)[O-]` [nifedipine], the “increase in the activity of cytostatics” value (in experiment [1]; in experiment [2]; in experiment [3]; in experiment [4]; in experiment [5]; in the experiment with neuroglioma cell line H4) was “(+) ((+) means an increase of about 5% to 80%)” each time.

For `C=CC[C@@H]1/C=C(\C)C[C@H](C)C[C@H](OC)[C@H]2O[C@@](O)(C(=O)C(=O)N3CCCC[C@H]3C(=O)O[C@H](/C(C)=C/[C@@H]3CC[C@@H](O)[C@H](OC)C3)[C@H](C)[C@@H](O)CC1=O)[C@H](C)C[C@@H]2OC` [tacrolimus], the “increase in the activity of cytostatics” value in experiment [1] is recorded as “(+) ((+) means an increase of about 5% to 80%)”; in experiment [2], “(+) ((+) means an increase of about 5% to 80%)”; in experiment [4], “(+) ((+) means an increase of about 5% to 80%)”; in the experiment with rectal carcinoma cells, “(+) ((+) means an increase of about 5% to 80%)”; in experiment [5], “(+) ((+) means an increase of about 5% to 80%)”; with neuroglioma cell line H4, “(++) ((++) means an increase of 80% to 500%)”.

`CC/C(=C(\c1ccccc1)c1ccc(OCCN(C)C)cc1)c1ccccc1` [tamoxifen]: the “increase in the activity of cytostatics” value in experiment [1] was “(+) ((+) means an increase of about 5% to 80%)”; in experiment [2], “(+) ((+) means an increase of about 5% to 80%)”; in experiment [3], “(++) ((++) means an increase of 80% to 500%)”; in experiment [4], “(+) ((+) means an increase of about 5% to 80%)”; in experiment [5] it was “(+) ((+) means an increase of about 5% to 80%)”; in the experiment on neuroglioma cell line H4 it was “(+) ((+) means an increase of about 5% to 80%)”.
